The record followed here is patent US9145392B2, “Imidazole amines as modulators of kinase activity” (Merck Patent GmbH, priority 2011, dated 2015).

One test has as its target His-AKT (Full Length) (Homo sapiens (Human), UniProt P31749). The test can be described thus: AKT enzyme assay. In kind it is biochemical. The note with it: read-out: IC50 AKT. As for the experimental part:
A TTP Mosquito liquid handling instrument is used to place 125n1 of the appropriate concentration of inhibitor in 100% DMSO (for a dose response curve calculation) into each well of a 384-well plate.
The reaction is incubated for 90 min at 25 C, and then stopped by the addition of 70 μl of Stop buffer (100 mM HEPES pH 7.5, 0.015% Brij-35, 10 mM EDTA (Sigma, E7889)).
The plate is read on a Caliper LC 3000 in an Off-Chip mobility shift assay format, using the following parameters for a 12-sipper chip: screening pressure −2.3 psi, upstream voltage −500, and downstream voltage −3000. These conditions cause unphosphorylated substrate and phosphorylated product peptide to resolve as separate peaks allowing direct measurement of percentage of conversion of substrate to product. The percent conversion can be plotted against concentration of inhibitor to produce a sigmoidal dose response curve, from which an IC50 can be calculated.

In the next test the target is P70S6K (T412E mutant) (Homo sapiens (Human), UniProt P23443, T412E). The test can be described thus: P70S6K enzyme assay. The test is classed as biochemical. Particulars: read-out: IC50 p70S6K. Put shortly: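 Phosphorylated product and substrate peptide separated by microfluidic capillary electrophoresis (Caliper LabChip 3000), product peaks resolving before substrate.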
Sequence of P70S6K (T412E mutant) (P23443 whole entry T412E): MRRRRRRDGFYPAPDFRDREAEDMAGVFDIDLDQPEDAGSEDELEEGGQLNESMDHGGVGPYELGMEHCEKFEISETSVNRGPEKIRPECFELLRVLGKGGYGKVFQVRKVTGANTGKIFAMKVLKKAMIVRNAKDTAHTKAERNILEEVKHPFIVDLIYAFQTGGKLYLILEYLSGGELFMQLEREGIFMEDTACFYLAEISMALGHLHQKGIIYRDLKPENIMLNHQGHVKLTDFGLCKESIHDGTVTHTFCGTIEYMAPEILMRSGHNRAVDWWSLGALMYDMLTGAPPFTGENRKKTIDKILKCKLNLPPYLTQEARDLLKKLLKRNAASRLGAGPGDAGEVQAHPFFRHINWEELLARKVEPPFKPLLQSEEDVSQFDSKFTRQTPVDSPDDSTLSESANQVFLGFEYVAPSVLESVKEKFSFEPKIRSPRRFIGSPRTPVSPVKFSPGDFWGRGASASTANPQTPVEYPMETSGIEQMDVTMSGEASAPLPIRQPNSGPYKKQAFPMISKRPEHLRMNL

Sequence of His-AKT (Full Length) (P31749 whole entry): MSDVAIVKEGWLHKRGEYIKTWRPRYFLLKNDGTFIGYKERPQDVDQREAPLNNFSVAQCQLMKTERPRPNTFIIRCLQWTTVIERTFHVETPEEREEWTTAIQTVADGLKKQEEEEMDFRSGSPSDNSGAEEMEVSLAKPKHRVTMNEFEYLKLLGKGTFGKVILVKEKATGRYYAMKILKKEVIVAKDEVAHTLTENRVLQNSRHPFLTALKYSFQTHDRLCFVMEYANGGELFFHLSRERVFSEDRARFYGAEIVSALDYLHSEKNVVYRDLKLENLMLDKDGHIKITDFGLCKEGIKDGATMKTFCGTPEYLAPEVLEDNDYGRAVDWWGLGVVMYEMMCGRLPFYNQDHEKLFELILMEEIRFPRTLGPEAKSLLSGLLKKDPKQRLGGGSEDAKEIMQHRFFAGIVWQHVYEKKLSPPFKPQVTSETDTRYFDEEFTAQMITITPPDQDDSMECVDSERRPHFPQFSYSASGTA

The IC50 is the concentration that gives 50% inhibition. As to `NC(=O)c1c(N)ncnc1N1CCC(c2nc(-c3ccc(OC(F)F)cc3)cn2CCN2CCC2)CC1` [Compound 81, 4-Amino-6-{4-[1-(2-azetidin-1-yl-ethyl)-4-(4-difluoromethoxy-phenyl)-1H-imidazol-2-yl]-piperidin-1-yl}-pyrimidine-5-carboxylic acid amide], the IC50 at His-AKT (Full Length) turned out to be 15000 nM; at P70S6K (T412E mutant) it was 98 nM.

`CCc1c(N)ncnc1N1CCC(c2nc(-c3ccc(F)c(C(F)(F)F)c3)cn2CCN(C)C)CC1` [Compound 82, 6-(4-(1-(2-(Dimethylamino)ethyl)-4-(4-fluoro-3-(trifluoromethyl)phenyl)-1H-imidazol-2-yl)piperidin-1-yl)-5-ethylpyrimidin-4-amine]: the figures for the IC50 at His-AKT (Full Length) and on P70S6K (T412E mutant) were 12 nM and 3.7 nM, respectively.

As to `CN(C)CCn1cc(-c2ccc(F)c(C(F)(F)F)c2)nc1C1CCN(c2ncnc(N)c2CCC2CC2)CC1` [Compound 83, 5-(2-Cyclopropylethyl)-6-(4-(1-(2-(dimethylamino)ethyl)-4-(4-fluoro-3-(trifluoromethyl)phenyl)-1H-imidazol-2-yl)piperidin-1-yl)pyrimidin-4-amine], the IC50 on His-AKT (Full Length) is 190 nM; on P70S6K (T412E mutant) it was 20 nM.

On to `CCOCCc1c(N)ncnc1N1CCC(c2nc(-c3ccc(F)c(C(F)(F)F)c3)cn2CCN(C)C)CC1` [Compound 84, 6-(4-(1-(2-(Dimethylamino)ethyl)-4-(4-fluoro-3-(trifluoromethyl)phenyl)-1H-imidazol-2-yl)piperidin-1-yl)-5-(2-ethoxyethyl)pyrimidin-4-amine], for which the values for the IC50 on His-AKT (Full Length) and at P70S6K (T412E mutant) were 340 nM and 5.2 nM, respectively.

`CN(C)CCn1cc(-c2ccc(F)c(C(F)(F)F)c2)nc1C1CCN(c2ncnc(N)c2/C=C/C2CC2)CC1` [Compound 85, (E)-5-(2-Cyclopropylvinyl)-6-(4-(1-(2-(dimethylamino)ethyl)-4-(4-fluoro-3-(trifluoromethyl)phenyl)-1H-imidazol-2-yl)piperidin-1-yl)pyrimidin-4-amine]: the results for the IC50 at His-AKT (Full Length) and on P70S6K (T412E mutant) were 43 nM and 12 nM, respectively.

Consider `CCO/C=C/c1c(N)ncnc1N1CCC(c2nc(-c3ccc(F)c(C(F)(F)F)c3)cn2CCN(C)C)CC1` [Compound 86, (E)-6-(4-(1-(2-(Dimethylamino)ethyl)-4-(4-fluoro-3-(trifluoromethyl)phenyl)-1H-imidazol-2-yl)piperidin-1-yl)-5-(2-ethoxyvinyl)pyrimidin-4-amine], for which the figures for the 50% inhibitory concentration (IC50) on His-AKT (Full Length) and on P70S6K (T412E mutant) were 4 nM and 1.9 nM, respectively.

Consider `CN(C)CCn1cc(-c2ccc(F)c(C(F)(F)F)c2)nc1C1CCN(c2ncnc(N)c2-c2ccc(C(C)(C)O)cc2)CC1` [Compound 87, 2-(4-(4-Amino-6-(4-(1-(2-(dimethylamino)ethyl)-4-(4-fluoro-3-(trifluoromethyl)phenyl)-1H-imidazol-2-yl)piperidin-1-yl)pyrimidin-5-yl)phenyl)propan-2-ol], for which the IC50 came out at 190 nM at His-AKT (Full Length) and 9.3 nM on P70S6K (T412E mutant).

Regarding `COC(=O)c1ccc(-c2c(N)ncnc2N2CCC(c3nc(-c4ccc(F)c(C(F)(F)F)c4)cn3CCN(C)C)CC2)cc1` [Compound 88, Methyl 4-(4-amino-6-(4-(1-(2-(dimethylamino)ethyl)-4-(4-fluoro-3-(trifluoromethyl)phenyl)-1H-imidazol-2-yl)piperidin-1-yl)pyrimidin-5-yl)benzoate], the IC50 was 95 nM on His-AKT (Full Length) and 8.1 nM on P70S6K (T412E mutant).

For the molecule `CN(C)CCn1cc(-c2ccc(F)c(C(F)(F)F)c2)nc1C1CCN(c2ncnc(N)c2-c2ccc(C(=O)O)cc2)CC1` [Compound 89], the values for the IC50 on His-AKT (Full Length) and at P70S6K (T412E mutant) were 33 nM and 7.3 nM, respectively.

As to `CN(C)CCn1cc(-c2ccc(F)c(C(F)(F)F)c2)nc1C1CCN(c2ncnc(N)c2C2=CCCC2)CC1` [Compound 90], the IC50 came out at 31 nM at His-AKT (Full Length) and 3.1 nM on P70S6K (T412E mutant).

Regarding `CN(C)CCn1cc(-c2ccc(F)c(C(F)(F)F)c2)nc1C1CCN(c2ncnc(N)c2C2CC2)CC1` [Compound 91, 5-Cyclopropyl-6-(4-(1-(2-(dimethylamino)ethyl)-4-(4-fluoro-3-(trifluoromethyl)phenyl)-1H-imidazol-2-yl)piperidin-1-yl)pyrimidin-4-amine], the IC50 was found to be 4.8 nM at His-AKT (Full Length) and 3.2 nM on P70S6K (T412E mutant).

`CCc1c(N)ncnc1N1CCC(c2nc(-c3ccc(F)c(C(F)(F)F)c3)cn2CCN2CC(F)C2)CC1` [Compound 92, 5-ethyl-6-(4-(4-(4-fluoro-3-(trifluoromethyl)phenyl)-1-(2-(3-fluoroazetidin-1-yl)ethyl)-1H-imidazol-2-yl)piperidin-1-yl)pyrimidin-4-amine]: the values for the IC50 at His-AKT (Full Length) and at P70S6K (T412E mutant) were 71 nM and 4.2 nM, respectively.

As for `CCc1c(N)ncnc1N1CCC(c2nc(-c3ccc(F)c(C(F)(F)F)c3)cn2CCN2CC(C)C2)CC1` [Compound 93, 5-ethyl-6-(4-(4-(4-fluoro-3-(trifluoromethyl)phenyl)-1-(2-(3-methylazetidin-1-yl)ethyl)-1H-imidazol-2-yl)piperidin-1-yl)pyrimidin-4-amine], the values for the 50% inhibitory concentration (IC50) on His-AKT (Full Length) and at P70S6K (T412E mutant) were 7.7 nM and 3 nM, respectively.

With `CCc1c(N)ncnc1N1CCC(c2nc(-c3ccc(F)c(C(F)(F)F)c3)cn2CCN2CC(F)(F)C2)CC1` [Compound 94, 6-(4-(1-(2-(3,3-difluoroazetidin-1-yl)ethyl)-4-(4-fluoro-3-(trifluoromethyl)phenyl)-1H-imidazol-2-yl)piperidin-1-yl)-5-ethylpyrimidin-4-amine], the IC50 on His-AKT (Full Length) amounted to 1600 nM; at P70S6K (T412E mutant), 13 nM.

For the molecule `CCN(C)Cc1c(N)ncnc1N1CCC(c2nc(-c3ccc(F)c(C(F)(F)F)c3)cn2CCN(C)C)CC1` [Compound 95, 6-(4-(1-(2-(dimethylamino)ethyl)-4-(4-fluoro-3-(trifluoromethyl)phenyl)-1H-imidazol-2-yl)piperidin-1-yl)-5-((ethyl(methyl)amino)methyl)pyrimidin-4-amine], the IC50 at His-AKT (Full Length) worked out at 520 nM; on P70S6K (T412E mutant), 47 nM.

Consider `CC(C)Oc1c(N)ncnc1N1CCC(c2nc(-c3ccc(F)c(C(F)(F)F)c3)cn2CCN2CCC2)CC1` [Compound 96, 6-(4-(1-(2-(azetidin-1-yl)ethyl)-4-(4-fluoro-3-(trifluoromethyl)phenyl)-1H-imidazol-2-yl)piperidin-1-yl)-5-isopropoxypyrimidin-4-amine], for which the IC50 on His-AKT (Full Length) worked out at 7.9 nM; on P70S6K (T412E mutant), 5.3 nM.

For `COc1c(N)ncnc1N1CCC(c2nc(-c3ccc(F)c(C(F)(F)F)c3)cn2CCN2CCC2)CC1` [Compound 97, 6-(4-(1-(2-(azetidin-1-yl)ethyl)-4-(4-fluoro-3-(trifluoromethyl)phenyl)-1H-imidazol-2-yl)piperidin-1-yl)-5-methoxypyrimidin-4-amine], the IC50 on His-AKT (Full Length) turned out to be 6.1 nM; at P70S6K (T412E mutant) it was 2.2 nM.

With `Nc1ncnc(N2CCC(c3nc(-c4ccc(F)c(C(F)(F)F)c4)cn3CCN3CCC3)CC2)c1-c1cn[nH]c1` [Compound 98, 6-(4-(1-(2-(azetidin-1-yl)ethyl)-4-(4-fluoro-3-(trifluoromethyl)phenyl)-1H-imidazol-2-yl)piperidin-1-yl)-5-(1H-pyrazol-4-yl)pyrimidin-4-amine], the figures for the IC50 on His-AKT (Full Length) and at P70S6K (T412E mutant) were 6.9 nM and 3 nM, respectively.

On to `CCc1c(N)ncnc1N1CCC(c2nc(-c3cncc(C(F)(F)F)c3)cn2CCN2CCC2)CC1` [Compound 99, 6-(4-(1-(2-(azetidin-1-yl)ethyl)-4-(5-(trifluoromethyl)pyridin-3-yl)-1H-imidazol-2-yl)piperidin-1-yl)-5-ethylpyrimidin-4-amine], for which the IC50 at His-AKT (Full Length) came to 18 nM; on P70S6K (T412E mutant), 4.5 nM.

Consider `CCc1c(N)ncnc1N1CCC(c2nc(-c3cccc(OC(F)(F)F)c3)cn2CCN2CCC2)CC1` [Compound 100, 6-(4-(1-(2-(azetidin-1-yl)ethyl)-4-(3-(trifluoromethoxy)phenyl)-1H-imidazol-2-yl)piperidin-1-yl)-5-ethylpyrimidin-4-amine], for which the figures for the IC50 at His-AKT (Full Length) and at P70S6K (T412E mutant) were 16 nM and 2.3 nM, respectively.

As for `CCc1c(N)ncnc1N1CCC(c2nc(-c3cncc(Cl)c3)cn2CCN2CCC2)CC1` [Compound 101, 6-(4-(1-(2-(azetidin-1-yl)ethyl)-4-(5-chloropyridin-3-yl)-1H-imidazol-2-yl)piperidin-1-yl)-5-ethylpyrimidin-4-amine], the IC50 on His-AKT (Full Length) was determined as 31 nM; at P70S6K (T412E mutant), 7.6 nM.

On to `CCOc1c(N)ncnc1N1CCC(c2nc(-c3ccc(F)c(C(F)(F)F)c3)cn2CCN2CCC2)CC1` [Compound 102, 6-(4-(1-(2-(azetidin-1-yl)ethyl)-4-(4-fluoro-3-(trifluoromethyl)phenyl)-1H-imidazol-2-yl)piperidin-1-yl)-5-ethoxypyrimidin-4-amine], for which the 50% inhibitory concentration (IC50) at His-AKT (Full Length) worked out at 4.1 nM; on P70S6K (T412E mutant), 2.4 nM.

Take `Nc1ncnc(N2CCC(c3nc(-c4ccc(F)c(C(F)(F)F)c4)cn3CCN3CCC3)CC2)c1OCC(F)(F)F` [Compound 103, 6-(4-(1-(2-(azetidin-1-yl)ethyl)-4-(4-fluoro-3-(trifluoromethyl)phenyl)-1H-imidazol-2-yl)piperidin-1-yl)-5-(2,2,2-trifluoroethoxy)pyrimidin-4-amine]: the half-inhibitory concentration (IC50) on His-AKT (Full Length) came out at 6.6 nM; at P70S6K (T412E mutant) it was 4.2 nM.

As for `CCc1c(N)ncnc1N1CCC(c2nc(-c3ccnc(Cl)c3)cn2CCN2CCC2)CC1` [Compound 104, 6-(4-(1-(2-(azetidin-1-yl)ethyl)-4-(2-chloropyridin-4-yl)-1H-imidazol-2-yl)piperidin-1-yl)-5-ethylpyrimidin-4-amine], the IC50 worked out at 16.5 nM at His-AKT (Full Length) and 3.1 nM at P70S6K (T412E mutant).
